# Measurements as given in patent US20050065212A1, “Use of at least one 10-hydroxy-2-decenoic acid derivative in compositions for treating the cuteous signs of aging” (priority 2001, published 2005).
# How the values were obtained:
# [1] = system: interstitial collagenase (type-1 metalloprotease, MMP-1) production by HT1080 cells; test: Production of interstitial collagenase in HT1080 cell culture (ELISA, Biotrack human MMP1); assay type: cell-based; conditions: for percentage of reduction of the production of interstitial collagenase relative to the control: compound 25 μg/ml, culture medium 96 hours after contact
# Method: (§1) The effect of 2-dimethylaminoethyl 10-hydroxy-2-decenoate on the production of interstitial collagenase was evaluated in a culture model of A2058 cells (derived from human melanomas: Templeton N. S. et al. 1990; Cancer Res., 50:5431-5431) and in a culture model of HT1080 cells derived from a human fibrosarcoma (American type Culture Collection: reference CCL 121).
# (§2) The A2058 cells constitutively express and secrete type-1 metalloprotease. The HT1080 cells express little type-1 metalloprotease in the basal state, but this expression is increased in the presence of TPA.
# (§3) The cells are incubated in an MEM medium without phenol red, containing amino acids at a concentration of 2 mM, sodium pyruvate at a concentration of 1 mM and calf serum containing 10% […]. They are then cultured at a density of 20 000 cells per well in the 24 wells of a multiwell plate.
# (§4) Twenty-four hours after culturing, the cells are placed in contact with 2-dimethylaminoethyl 10-hydroxy-2-decenoate at a concentration of 25 μg/ml. The production of the interstitial collagenase is evaluated 96 hours later in the culture medium. This is performed using an ELISA kit (Biotrack human MMP1; Amersham).
# (§5) The results are expressed as a percentage of reduction of the production of interstitial collagenase relative to the control, i.e. relative to culturing performed under the same conditions in the absence of derivative.
# [2] = system: interstitial collagenase (type-1 metalloprotease, MMP-1) production by A2058 cells; test: Production of interstitial collagenase in A2058 cell culture (ELISA, Biotrack human MMP1); assay type: cell-based
# Method: as §1, §2, §3, §4, §5
smiles,measurement,setting,value
CN(C)CCOC(=O)/C=C/CCCCCCCO [2-dimethylaminoethyl 10-hydroxy-2-decenoate],percentage of reduction of the production of interstitial collagenase relative to the control,[1]; HT1080 with TPA,50%
same,percentage of reduction of the production of interstitial collagenase relative to the control,[1]; HT1080 without TPA,55%
same,effect on production of interstitial collagenase (in words),"[1]; HT61080 cells as printed, dose of 25 μg/ml",reduces the production of interstitial collagenase
same,percentage of reduction of the production of interstitial collagenase relative to the control,"[2]; A2058 cells, compound 25 μg/ml, culture medium 96 hours after contact",70%
same,effect on production of interstitial collagenase (in words),"[2]; A 2058 cells, dose of 25 μg/ml",reduces the production of interstitial collagenase
